From patent US6737383B1, “Herbicidal oxadiazolidines” (priority 1999, dated 2004)

Experiments:
purple nutsedge = experiment: Test B pre/postemergence purple nutsedge; format: in vivo, Cyperus rotundus; details: for Nutsedge plant response rating: scale of 0 to 10 where 0 is no effect and 10 is complete control
Summary of the method: (§1)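 Response is a visual 0-to-10 score relative to untreated plants, where 0 means no effect and 10 means complete control, taken twelve to sixteen days after application. Treatments went onto soil at planting and onto foliage of 1- to 4-leaf plants, using a surfactant-containing non-phytotoxic solvent.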

crabgrass = experiment: Test B pre/postemergence crabgrass; format: in vivo, Digitaria sanguinalis; details: for Crabgrass plant response rating: scale of 0 to 10 where 0 is no effect and 10 is complete control
Summary of the method: as §1

smallflower flatsedge = experiment: Test B flood test smallflower flatsedge; format: in vivo, Cyperus difformis
Summary of the method: (§2)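 Flood test on plants grown to the 2-leaf stage; treated plants kept in greenhouse twelve to sixteen days, then visually rated against controls on a 0 (no effect) to 10 (complete control) scale.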

bedstraw = experiment: Test B pre/postemergence bedstraw; format: in vivo, Galium aparine
Summary of the method: as §1

corn = experiment: Test B pre/postemergence corn; format: in vivo, Zea mays; details: for Corn plant response rating: scale of 0 to 10 where 0 is no effect and 10 is complete control
Summary of the method: as §1

cocklebur = experiment: Test B pre/postemergence cocklebur; format: in vivo, Xanthium strumarium; details: for Cocklebur plant response rating: scale of 0 to 10 where 0 is no effect and 10 is complete control
Summary of the method: as §1

surinam grass = experiment: Test B pre/postemergence surinam grass; format: in vivo, Brachiaria decumbens; details: for B. signalgrass plant response rating: scale of 0 to 10 where 0 is no effect and 10 is complete control
Summary of the method: as §1

duck salad = experiment: Test B flood test duck salad; format: in vivo, Heteranthera limosa
Summary of the method: as §2

soybean = experiment: Test B pre/postemergence soybean; format: in vivo, Glycine max; details: for Soybean plant response rating: scale of 0 to 10 where 0 is no effect and 10 is complete control
Summary of the method: as §1

blackgrass = experiment: Test B pre/postemergence blackgrass; format: in vivo, Alopecurus myosuroides; details: for Blackgrass plant response rating: scale of 0 to 10 where 0 is no effect and 10 is complete control
Summary of the method: as §1

bamyardgrass = experiment: Test B flood test barnyardgrass; format: in vivo, Echinochloa crus-galli
Summary of the method: as §2

sugar beet = experiment: Test B pre/postemergence sugar beet; format: in vivo, Beta vulgaris; details: for Sugarbeets plant response rating: scale of 0 to 10 where 0 is no effect and 10 is complete control
Summary of the method: as §1

wheat = experiment: Test B pre/postemergence wheat; format: in vivo, Triticum aestivum; details: for Wheat plant response rating: scale of 0 to 10 where 0 is no effect and 10 is complete control
Summary of the method: as §1

velvetleaf = experiment: Test B pre/postemergence velvetleaf; format: in vivo, Abutilon theophrasti; details: for Velvetleaf plant response rating: scale of 0 to 10 where 0 is no effect and 10 is complete control
Summary of the method: as §1

wild oat = experiment: Test B pre/postemergence wild oat; format: in vivo, Avena fatua; details: for Wild oats plant response rating: scale of 0 to 10 where 0 is no effect and 10 is complete control
Summary of the method: as §1

rice = experiment: Test B flood test rice; format: in vivo, Oryza sativa
Summary of the method: as §2

[1] = Postemergence, Rate 125 g/ha, scale 0 to 10, 0 is no effect, 10 is complete control
[2] = Postemergence, Rate 250 g/ha, scale 0 to 10, 0 is no effect, 10 is complete control
[3] = Preemergence, Rate 62 g/ha, scale 0 to 10 (0 no effect, 10 complete control)
[4] = Rate 500 g/ha, Postemergence, scale 0 to 10, 0 no effect, 10 complete control
[5] = Rate 62 g/ha, flood test species, Pre-emergence, visual evaluation after twelve to sixteen days
[6] = Rate 125 g/ha, under heading Pre-emergence, flood test species, visual evaluation after twelve to sixteen days
[7] = Rate 250 g/ha, Pre-emergence, flood-test species, scale 0 to 10, 0 is no effect, 10 is complete control
[8] = Rate 500 g/ha, Pre-emergence, flood test species, scale 0 to 10 (0 no effect, 10 complete control)

CC(C)N(C(=O)n1oc(=O)n(N2C(C)CCCC2C)c1=O)c1ccc(F)cc1F (stereo not drawn) [Compound 383]
7: Blackgrass plant response rating (blackgrass; Preemergence, Rate 500 g/ha)
3: Plant response rating, Soybean (soybean; [1]) | Plant response rating, Soybean (soybean; [2])
9: Crabgrass plant response rating (crabgrass; Preemergence, Rate 250 g/ha)
4: Plant response rating, Crabgrass (crabgrass; [2]) | Plant response rating, Crabgrass (crabgrass; [4])
6: Plant response rating, Crabgrass (crabgrass; [3]) | B. signalgrass plant response rating (surinam grass; Preemergence, Rate 500 g/ha)
5: Plant response rating, Soybean (soybean; [4])
10: Crabgrass plant response rating (crabgrass; Preemergence, Rate 500 g/ha)
2: Soybean plant response rating (soybean; Rate 62 g/ha, Postemergence) | Plant response rating, Blackgrass (blackgrass; [2]) | Blackgrass plant response rating (blackgrass; Preemergence, Rate 250 g/ha)
8: Crabgrass plant response rating (0 to 10 scale) (crabgrass; Preemergence, Rate 125 g/ha) | Plant response rating, Blackgrass (blackgrass; [4])
0: Plant response rating, Nutsedge (purple nutsedge; [1]) | Plant response rating, Nutsedge (purple nutsedge; [2]) | Plant response rating, Nutsedge (purple nutsedge; [3]) | Nutsedge plant response rating (0 to 10 scale) (purple nutsedge; Preemergence, Rate 125 g/ha) | Nutsedge plant response rating (purple nutsedge; Preemergence, Rate 250 g/ha) | Nutsedge plant response rating (purple nutsedge; Preemergence, Rate 500 g/ha) | Nutsedge plant response rating (purple nutsedge; Rate 62 g/ha, Postemergence) | Plant response rating, Nutsedge (purple nutsedge; [4]) | Crabgrass plant response rating (crabgrass; Rate 62 g/ha, Postemergence) | Plant response rating, S. Flatsedge (0 to 10 scale, 0 is no effect, 10 is complete control) (smallflower flatsedge; [5]) | S. Flatsedge plant response rating (0 to 10 scale, 0 is no effect, 10 is complete control) (smallflower flatsedge; [6]) | S. Flatsedge plant response rating (smallflower flatsedge; [7]) | S. Flatsedge plant response rating (smallflower flatsedge; [8]) | Plant response rating, Bedstraw (bedstraw; [1]) | Plant response rating, Bedstraw (bedstraw; [2]) | Plant response rating, Bedstraw (bedstraw; [3]) | Plant response rating, Bedstraw (bedstraw; [4]) | Plant response rating, Corn (corn; [1]) | Plant response rating, Corn (corn; [2]) | Plant response rating, Corn (corn; [3]) | Corn plant response rating (0 to 10 scale) (corn; Preemergence, Rate 125 g/ha) | Corn plant response rating (corn; Preemergence, Rate 250 g/ha) | Corn plant response rating (corn; Preemergence, Rate 500 g/ha) | Corn plant response rating (corn; Rate 62 g/ha, Postemergence) | Plant response rating, Corn (corn; [4]) | Plant response rating, Cocklebur (cocklebur; [1]) | Plant response rating, Cocklebur (cocklebur; [2]) | Plant response rating, Cocklebur (cocklebur; [3]) | Cocklebur plant response rating (0 to 10 scale) (cocklebur; Preemergence, Rate 125 g/ha) | Cocklebur plant response rating (cocklebur; Preemergence, Rate 250 g/ha) | Cocklebur plant response rating (cocklebur; Preemergence, Rate 500 g/ha) | Cocklebur plant response rating (cocklebur; Rate 62 g/ha, Postemergence) | Plant response rating, Cocklebur (cocklebur; [4]) | Plant response rating, B. signalgrass (surinam grass; [1]) | Plant response rating, B. signalgrass (surinam grass; [2]) | Plant response rating, B. signalgrass (surinam grass; [3]) | B. signalgrass plant response rating (0 to 10 scale, 0 is no effect, 10 is complete control) (surinam grass; Preemergence, Rate 125 g/ha) | B. signalgrass plant response rating (surinam grass; Preemergence, Rate 250 g/ha) | B. signalgrass plant response rating (surinam grass; Rate 62 g/ha, Postemergence) | Plant response rating, B. signalgrass (surinam grass; [4]) | Plant response rating, Ducksalad (0 to 10 scale, 0 is no effect, 10 is complete control) (duck salad; [5]) | Ducksalad plant response rating (0 to 10 scale, 0 is no effect, 10 is complete control) (duck salad; [6]) | Ducksalad plant response rating (duck salad; [7]) | Ducksalad plant response rating (duck salad; [8]) | Plant response rating, Soybean (soybean; [3]) | Soybean plant response rating (0 to 10 scale) (soybean; Preemergence, Rate 125 g/ha) | Soybean plant response rating (soybean; Preemergence, Rate 250 g/ha) | Soybean plant response rating (soybean; Preemergence, Rate 500 g/ha) | Plant response rating, Blackgrass (blackgrass; [1]) | Plant response rating, Blackgrass (blackgrass; [3]) | Blackgrass plant response rating (0 to 10 scale) (blackgrass; Preemergence, Rate 125 g/ha) | Blackgrass plant response rating (blackgrass; Rate 62 g/ha, Postemergence) | Plant response rating, Barnyardgrass (0 to 10 scale, 0 is no effect, 10 is complete control) (bamyardgrass; [5]) | Barnyardgrass plant response rating (0 to 10 scale, 0 is no effect, 10 is complete control) (bamyardgrass; [6]) | Barnyardgrass plant response rating (bamyardgrass; [7]) | Barnyardgrass plant response rating (bamyardgrass; [8]) | Plant response rating, Sugarbeets (sugar beet; [1]) | Plant response rating, Sugarbeets (sugar beet; [2]) | Plant response rating, Sugarbeets (sugar beet; [3]) | Sugarbeets plant response rating (0 to 10 scale) (sugar beet; Preemergence, Rate 125 g/ha) | Sugarbeets plant response rating (sugar beet; Preemergence, Rate 250 g/ha) | Sugarbeets plant response rating (sugar beet; Preemergence, Rate 500 g/ha) | Sugarbeets plant response rating (sugar beet; Rate 62 g/ha, Postemergence) | Plant response rating, Sugarbeets (sugar beet; [4]) | Plant response rating, Wheat (wheat; [1]) | Plant response rating, Wheat (wheat; [2]) | Plant response rating, Wheat (wheat; [3]) | Wheat plant response rating (0 to 10 scale) (wheat; Preemergence, Rate 125 g/ha) | Wheat plant response rating (wheat; Preemergence, Rate 250 g/ha) | Wheat plant response rating (wheat; Preemergence, Rate 500 g/ha) | Wheat plant response rating (wheat; Rate 62 g/ha, Postemergence) | Plant response rating, Wheat (wheat; [4]) | Plant response rating, Velvetleaf (velvetleaf; [1]) | Plant response rating, Velvetleaf (velvetleaf; [2]) | Plant response rating, Velvetleaf (velvetleaf; [3]) | Velvetleaf plant response rating (0 to 10 scale) (velvetleaf; Preemergence, Rate 125 g/ha) | Velvetleaf plant response rating (velvetleaf; Preemergence, Rate 250 g/ha) | Velvetleaf plant response rating (velvetleaf; Preemergence, Rate 500 g/ha) | Velvetleaf plant response rating (velvetleaf; Rate 62 g/ha, Postemergence) | Plant response rating, Velvetleaf (velvetleaf; [4]) | Plant response rating, Wild oats (wild oat; [1]) | Plant response rating, Wild oats (wild oat; [2]) | Plant response rating, Wild oats (wild oat; [3]) | Wild oats plant response rating (0 to 10 scale) (wild oat; Preemergence, Rate 125 g/ha) | Wild oats plant response rating (wild oat; Preemergence, Rate 250 g/ha) | Wild oats plant response rating (wild oat; Preemergence, Rate 500 g/ha) | Wild oats plant response rating (wild oat; Rate 62 g/ha, Postemergence) | Plant response rating, Wild oats (wild oat; [4]) | Plant response rating, Rice (0 to 10 scale, 0 is no effect, 10 is complete control) (rice; [5]) | Rice plant response rating (0 to 10 scale, 0 is no effect, 10 is complete control) (rice; [6]) | Rice plant response rating (rice; [7]) | Rice plant response rating (rice; [8])
1: Plant response rating, Crabgrass (crabgrass; [1])
